{"source": "paper PMC9433906", "about": "“Evaluation of the biotechnological potential of peptide Cupiennin 1a and analogs” (Frontiers in Microbiology, 2022)", "key": {"S. aureus (ATCC 25923)": {"test_system": "S. aureus (ATCC 25923)", "type": "cell-based, Staphylococcus aureus", "conditions": "S. aureus (ATCC25923); 5×10^5 CFU.ml^−1, Mueller-Hinton Broth, 37°C, 24 h, OD 595 nm, biological triplicates", "description": "(§1) Susceptibility tests were performed using clinical isolates of Klebsiella pneumoniae carbapenemase (KPC 1410503) and methicillin-resistant S. aureus (MRSA 3730592). Tests were also performed with ATCC (American Type Culture Collection) isolates of K. pneumoniae (ATCC 13883) and S. aureus (ATCC 25923).\n(§2) Two multidrug-resistant clinical isolates and two ATCC isolates were chosen to perform microbial susceptibility testing as models for studies with bacteria susceptible to antimicrobials found in the Gram-Positive and Gram-Negative groups of bacteria.\n(§3) The broth microdilution method was performed according to the Clinical and Laboratory Standards Institute (CLSI) M07-A10 protocol to determine the Minimum Inhibitory Concentration (MIC; [Clinical Laboratory Standards Institute, 2015]). The assay was performed on 96-well microplates (TPP, United States), containing 5×10^5 CFU.ml^−1 of each tested bacterium per well and different peptide micromolar concentrations (Table 1) in a final volume of 100 μl of Mueller-Hinton Broth (MH). Negative control was represented by bacteria incubated in MH medium, while positive control was represented by culture incubated in MH medium with Amikacin. Plates were kept under agitation at 37°C in a BioTek spectrophotometer (PowerWaveTM HT Microplate Reader) with optical density (OD) readings at 595 nm every 30 min for 24 h. Inhibition results were analyzed using GraphPad Prism 8 software by comparing the OD from negative control wells (100%) to those containing peptides. All tests were performed in biological triplicates."}, "[1]": {"test_system": "methicillin-resistant S. aureus (MRSA 3730592)", "type": "cell-based, Staphylococcus aureus", "conditions": "Methicillin-Resistant S. aureus—MRSA clinical isolate 3730592; 5×10^5 CFU.ml^−1, Mueller-Hinton Broth, 37°C, 24 h, OD 595 nm, biological triplicates", "description": "as §1, §2, §3"}, "RAW 264.7 cells": {"test_system": "RAW 264.7 cells", "assay": "MTT cytotoxicity test against RAW 264.7", "type": "cell-based, mice", "conditions": "24 h; for toxicity against RAW264.7 cells (in words): tested concentrations of Table 1 (128–16 μg.ml^−1)", "description": "The cell line RAW 264.7 was obtained from the Rio de Janeiro Cell Bank (CR108). These cells are macrophages derived from induced tumors in male BALB/c mice infected with Abelson’s murine leukemia virus ([Raschke et al., 1978]). RAW264.7 cells were grown in DMEM medium (Dulbecco’s Modified Eagle’s medium, composed of CaCl2 (anhydrous) 200 mg.ml^−1, Fe(NO3).9H2O 0.1 mg.ml^−1, KCL 400 mg.ml^−1, MgSO4 (anhydrous) 97.67 mg.ml^−1, NaCL 6.400 mg.ml^−1, NaH2PO4.H2O 125 mg.ml^−1) supplemented with 10% (v/v) of bovine fetal serum, 0.5% (v/v) of DMEM amino acid solution, 0.05% (w/v) gentamicin, 0.5% (w/v) of L-glutamine, and 0.5% (w/v) of penicillin/streptomycin (1,000 U.ml^−1) in an incubator containing 5% CO2, at 37°C, and 95% humidity ([Raschke et al., 1978]; [Nguyen et al., 2017]).\nRAW 264.7 cells were seeded in 96-well plates, at a concentration of 10^4 cells/well, and incubated for 24 h. Each peptide was subsequently added at different micromolar concentrations (Table 1). Positive control was performed by cells in culture medium and negative control, as cell culture in lysis solution (10 mM Tris, 1 mM EDTA, and 0.1% Triton X-100, pH 7.4).\nCell viability analyses were performed in technical and biological replicates, and readings were obtained after 24 h of contact with peptides. At the end of the incubation period, MTT (Sigma-Aldrich, United States) was used to assess the ability of living cells to reduce salt 3-[4,5-dimethylthiazole-2-yl]-2,5-diphenyltetrazolium bromide for formazan production. Plates were read at 570 ηm ([Mosmann, 1983]) and results were expressed in the percentage of living cells. The results were analyzed using GraphPad Prism 8 software where a One-Way ANOVA statistical test was followed by Bonferroni’s multiple comparisons test."}, "[2]": {"test_system": "Spodoptera frugiperda (SF21) cells", "assay": "In vitro test against insect cells (MTT)", "type": "cell-based", "conditions": "24 h", "description": "To evaluate the ability of the peptides to cause lysis and morphological changes in insect cells ([Dutra, 2019]; Patent: BR 102022 006138 6) as a first screening of the insecticidal activity of the peptides, in this work, the Spodoptera IPLB-SF-21AE _LVI-Cenargen cell line ([Vaughn et al., 1977]) was used and different concentrations of the peptides were added to the culture medium.\nCells were maintained at 27°C in TNMFH medium (Grace’s insect medium supplemented with lactalbumin hydrolyzate and yeastolate), supplemented with 10% (v/v) fetal bovine serum (Sigma-Aldrich; [Castro et al., 2006]).\nCell cultivation was carried out in 10 ml culture bottles, model K11-1050 25cm^2, with 5 ml of culture medium per bottle. For the assays, the SF21 cells were grown in TNMFH medium, added 10% (v/v) of bovine fetal serum, and distributed in plates of 96 wells at the concentration of 2×10^4 cells per well, after counting was performed in the Neubauer chamber. Cell suspension was distributed in a volume of 100 μl per well. Peptides were diluted in TNMFH medium and 100 μl of medium with peptide was added, obtaining concentrations of 10, 5, and 1 μM, reaching the volume of 200 μl at the final concentrations of reaction per well. Cells were placed in incubation at 27°C, for 24 h.\nAfter 24 h, the cells were analyzed for their modifications, morphological alterations, turbidity of the medium, formation of clumps, and/or lysis in the presence of peptides, by observation under optical microscopy (Nikon Eclipse TS100) with 20× and 40× magnification. Characteristics that could represent cell death or cell dysfunction caused by the peptides were observed compared to control cells. Cells were evaluated by cell viability using the MTT test 3-[4,5-dimethylthiazole-2-yl]-2,5-diphenyltetrazolium bromide 0.5 mg.ml^−1 (Sigma-Aldrich). To perform the test, the cell culture medium was discarded, and we added 100 μl of new medium. Ten μl of MTT was added to each well and incubated for 4 h, with the plates protected from light. After 4 h, we added 100 μl of DMSO to each well to dissolve the formazan crystals, and the reading in the microplate reader ([Riss et al., 2016]) was then performed. The results were analyzed using GraphPad Prism 8 software, where a One-Way ANOVA statistical test was followed by Bonferroni’s multiple comparisons test."}, "[3]": {"conditions": "lowest concentration tested (1 μM)"}}, "note": "Where a SMILES comes first, the peptide text is derived from it.", "data": [{"molecule": "CC(C)C[C@H](NC(=O)[C@H](C)NC(=O)CNC(=O)[C@H](Cc1ccccc1)NC(=O)CN)C(=O)N[C@@H](Cc1ccccc1)C(=O)N[C@@H](CCCCN)C(=O)N[C@@H](CCCNC(=N)N)C(=O)N[C@@H](CC(C)C)C(=O)N[C@@H](C)C(=O)N[C@@H](CCCCN)C(=O)N[C@@H](CCCCN)C(=O)N[C@H](C(=O)N[C@@H](C)C(=O)N[C@@H](CCCCN)C(=O)N[C@H](C(=O)N[C@H](C(=O)N[C@@H](C)C(N)=O)C(C)C)[C@@H](C)O)C(C)C", "note": "[Peptide R3b] (H-GFGALFKRLAKKVAKTVA-NH2)", "values": [{"measurement": "Minimum inhibitory concentration (MIC)", "setting": "S. aureus (ATCC 25923)", "value": 67.21, "unit": "µM"}, {"measurement": "Minimum inhibitory concentration (MIC)", "setting": "[1]", "value": 67.21, "unit": "µM"}, {"measurement": "toxicity to RAW264.7 cells at the MIC concentration (in words)", "setting": "RAW 264.7 cells; R1b: MIC found for KPC1410503, R3b: MIC at high concentrations against all tested microorganisms", "value": "toxic"}, {"measurement": "toxicity against RAW264.7 cells (in words)", "setting": "RAW 264.7 cells", "value": "high toxicity"}, {"measurement": "viable cells (SF21)", "setting": "[2]; 10 μM", "value": 14, "unit": "%"}, {"measurement": "cell viability (SF21)", "setting": "[2]; 5 and 1 μM", "value": "greater than 50%"}]}, {"molecule": "CC(C)C[C@H](NC(=O)[C@H](C)NC(=O)CNC(=O)[C@H](Cc1ccccc1)NC(=O)CN)C(=O)N[C@@H](Cc1ccccc1)C(=O)N[C@@H](CCCCN)C(=O)N[C@@H](Cc1ccccc1)C(=O)N[C@@H](CC(C)C)C(=O)N[C@@H](C)C(=O)N[C@@H](CCCCN)C(=O)N[C@@H](C)C(=O)N[C@H](C(=O)N[C@@H](C)C(=O)N[C@@H](CCCCN)C(=O)N[C@@H](C)C(=O)N[C@H](C(=O)N[C@@H](C)C(N)=O)C(C)C)C(C)C", "note": "[Peptide R6b] (H-GFGALFKFLAKAVAKAVA-NH2)", "values": [{"measurement": "Minimum inhibitory concentration (MIC)", "setting": "S. aureus (ATCC 25923)", "value": 17.7, "unit": "µM"}, {"measurement": "Minimum inhibitory concentration (MIC)", "setting": "[1]", "value": 17.7, "unit": "µM"}, {"measurement": "cell viability (RAW264.7) in the MIC found for the two strains of S. aureus", "setting": "RAW 264.7 cells; at the MIC of R6b for these strains (17.7 μM in Table 3)", "value": 62, "unit": "%"}, {"measurement": "toxicity against RAW264.7 cells (in words)", "setting": "RAW 264.7 cells", "value": "high toxicity"}, {"measurement": "cell viability (SF21)", "setting": "[2]; [3]", "value": "below 50%"}]}, {"molecule": "CC(C)C[C@H](NC(=O)[C@H](C)NC(=O)CNC(=O)[C@H](Cc1ccccc1)NC(=O)CN)C(=O)N[C@@H](Cc1ccccc1)C(=O)N[C@@H](CCCCN)C(=O)N[C@@H](CCCNC(=N)N)C(=O)N[C@@H](CC(C)C)C(=O)N[C@@H](C)C(=O)N[C@@H](CCCCN)C(=O)N[C@@H](C)C(=O)N[C@H](C(=O)N[C@@H](C)C(=O)N[C@@H](CCCCN)C(=O)N[C@@H](C)C(=O)N[C@H](C(=O)N[C@@H](C)C(N)=O)C(C)C)C(C)C", "note": "[Peptide R8b] (H-GFGALFKRLAKAVAKAVA-NH2)", "values": [{"measurement": "Minimum inhibitory concentration (MIC)", "setting": "S. aureus (ATCC 25923)", "value": 17.60, "unit": "µM"}, {"measurement": "Minimum inhibitory concentration (MIC)", "setting": "[1]", "value": 17.60, "unit": "µM"}, {"measurement": "cell viability in RAW264.7 cells from the MIC concentration found for MRSA3730592, S. aureus ATCC25923, K. pneumoniae ATCC13883", "setting": "RAW 264.7 cells; at the MIC of R8b for these strains (17.60 μM in Table 3)", "value": 59, "unit": "%"}, {"measurement": "cell viability (SF21)", "setting": "[2]; [3]", "value": "below 50%"}]}, {"molecule": "CC(C)C[C@H](NC(=O)[C@H](CCCNC(=N)N)NC(=O)[C@H](CCCCN)NC(=O)[C@H](Cc1ccccc1)NC(=O)[C@H](CC(C)C)NC(=O)[C@H](CCCCN)NC(=O)CNC(=O)[C@H](Cc1ccccc1)NC(=O)CN)C(=O)N[C@@H](C)C(=O)N[C@@H](CCCCN)C(=O)N[C@@H](C)C(=O)N[C@H](C(=O)N[C@@H](C)C(=O)N[C@@H](CCCCN)C(=O)N[C@@H](C)C(=O)N[C@H](C(=O)N[C@@H](C)C(N)=O)C(C)C)C(C)C", "note": "[Peptide R10b] (H-GFGKLFKRLAKAVAKAVA-NH2)", "values": [{"measurement": "Minimum inhibitory concentration (MIC)", "setting": "S. aureus (ATCC 25923)", "value": 8.53, "unit": "µM"}, {"measurement": "Minimum inhibitory concentration (MIC)", "setting": "[1]", "value": 8.53, "unit": "µM"}, {"measurement": "cell viability in RAW cells at the MIC value found for bacteria", "setting": "RAW 264.7 cells; 17.07 and 8.53 μM", "value": "more than 50%"}, {"measurement": "toxicity against RAW264.7 cells (in words)", "setting": "RAW 264.7 cells", "value": "high toxicity"}, {"measurement": "cell viability (SF21)", "setting": "[2]; [3]", "value": "below 50%"}]}]}
